Assay results taken from patent publication US5891882A, “Benzopyranopyrrole and benzopyranopyridine α-1 adenergic compounds” (priority 1997, dated 1999).
Counter-ions that a name gives are not always drawn.

What follows are compounds tested against T1, α-1 Adrenoceptors (Rat Aorta) (Rattus norvegicus, UniProt P23944) (assay: Functional antagonism at α-1 adrenoceptors, rat aorta). Conditions: read-out: In Vitro Characterization (pA2) Rat Aorta (converted).
T1 construct: Rat Aorta; from tissue; host or cells: rat aorta
T1 sequence (P23944 1-561): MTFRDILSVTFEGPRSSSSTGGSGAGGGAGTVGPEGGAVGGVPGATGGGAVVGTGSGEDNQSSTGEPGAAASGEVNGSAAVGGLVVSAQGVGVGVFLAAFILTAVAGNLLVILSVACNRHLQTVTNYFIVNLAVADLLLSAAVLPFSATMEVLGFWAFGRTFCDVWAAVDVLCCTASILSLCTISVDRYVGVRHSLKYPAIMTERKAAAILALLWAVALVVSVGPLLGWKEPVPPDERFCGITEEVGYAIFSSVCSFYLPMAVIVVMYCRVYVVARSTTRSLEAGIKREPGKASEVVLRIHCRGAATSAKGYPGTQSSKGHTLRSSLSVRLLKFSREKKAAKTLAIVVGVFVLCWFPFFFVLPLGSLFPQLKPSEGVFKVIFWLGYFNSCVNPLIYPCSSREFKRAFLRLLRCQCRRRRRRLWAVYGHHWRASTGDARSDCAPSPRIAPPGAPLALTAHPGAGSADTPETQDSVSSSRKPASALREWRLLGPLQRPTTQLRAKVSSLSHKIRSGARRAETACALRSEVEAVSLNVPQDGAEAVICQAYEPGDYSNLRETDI
Format: cell-based
Description: Functional assays indicative of pharmacologically defined α-1 adrenoreceptors were used to further characterize compounds. Inhibition of phenylephrine (PE)-induced contraction of canine prostate smooth muscle can be correlated with α-1A adrenoreceptor activation. […] For each of these models, agonist dose response curves were repeated against increasing concentrations of test agent to derive a Schild plot [log ([…]) against log (molarity of test agent)] to determine the pA2.
Work on `COc1cccc2c1[C@@H]1CN(CCCCn3c(=O)[nH]c4c(sc5ccc(Cl)nc54)c3=O)C[C@H]1CO2` [Example 25, 3-[4-((3aS,9bR)-trans-9-Methoxy-1,2,3,3a,4,9b-hexahydro-[1]-benzopyrano[3,4-c]pyrrol-2-yl)butyl]-8-chloro-pyrido[2',3':4,5]thieno[3,2-d]pyrimidine-2,4(1H,3H)-dione dihydrochloride] yielded a Kb of 0.0138 nM. Compound `COc1cccc2c1[C@@H]1CN(CCCCn3c(=O)[nH]c4c(sc5nccc(OC)c54)c3=O)C[C@@H]1CO2` [Example 36, 3-[4-((3aR,9bR)-cis-9-Methoxy-1,2,3,3a,4,9b-hexahydro-[1]-benzopyrano[3,4-c]pyrrol-2-yl)butyl]-9-methoxy-pyrido[2',3':4,5]thieno[3,2-d]pyrimidine-2,4(1H,3H)-dione hydrochloride] has a Kb of 0.372 nM. Compound `COc1cccc2c1[C@@H]1CN(CCCCn3c(=O)[nH]c4c(sc5nc(C)ccc54)c3=O)C[C@@H]1CO2` [Example 35, hydrochloride] has a Kb of 0.741 nM. `COc1cccc2c1[C@@H]1CN(CCCCn3c(=O)[nH]c4c(sc5c(OC)ccnc54)c3=O)C[C@@H]1CO2` [Example 18, 3-[4-((3aR,9bR)-cis-9-Methoxy-1,2,3,3a,4,9b-hexahydro-[1]-benzopyrano[3.4-c]pyrrol-2-yl)butyl]-6-methoxy-pyrido[2',3':4,51thieno[3,2-d]pyrimidine-2,4(1H,3H)-dione dihydrochloride] gave a Kb of 0.457 nM. Compound `COc1cccc2c1[C@@H]1CN(CCCCn3c(=O)[nH]c4c(sc5ccc(Cl)nc54)c3=O)C[C@@H]1CO2` [Example 37, 3-[4((3aR,9bR)-cis-9-Methoxy-1,2,3,3a,4,9b-hexahydro-[1]-benzopyrano[3,4-c]pyrrol-2-yl)butyl]-8-chloro-pyrido[2',3':4,5]thieno[3,2-d]pyrimidine-2,4(1H,3H)-dione hydrochloride] has a Kb of 0.229 nM. Compound `COc1cnc2sc3c(=O)n(CCCCN4C[C@@H]5COc6cccc(OC)c6[C@@H]5C4)c(=O)[nH]c3c2n1` [Example 31, hydrochloride] has a Kb of 0.794 nM. Work on `COc1cccc2c1[C@@H]1CN(CCCCn3c(=O)[nH]c4c(sc5cc(Cl)cnc54)c3=O)C[C@@H]1CO2` [Example 38, 3-[4((3aR,9bR)-cis-9-Methoxy-1,2,3,3a,4,9b-hexahydro-[1]-benzopyrano[3,4-c]pyrrol-2-yl)butyl]-7-chloro-pyrido[2',3':4,5]thieno[3,2-d]pyrimidine-2,4(1H,3H)-dione hydrochloride] yielded a Kb of 1.15 nM. Compound `COc1cccc2c1[C@@H]1CN(CCCCn3c(=O)[nH]c4c(sc5c(OC)ccnc54)c3=O)C[C@H]1CO2` [Example 17, 3-[4-((3aS,9bR)-trans-9-Methoxy-1,2,3,3a,4,9b-hexahydro-[1]-benzopyrano[3,4-c]pyrrol-2-yl)butyl]-6-methoxy-pyrido[2',3':4,51thieno[3,2-d]pyrimidine-2,4(1H,3H)-dione dihydrochloride] has a Kb of 0.631 nM. `COc1cccc2c1[C@@H]1CN(CCCCn3c(=O)[nH]c4c(sc5ccc(OC(C)C)nc54)c3=O)C[C@H]1CO2` [Example 51, 3-[4-((3aS,9bR)-trans-9-Methoxy-1,2,3,3a,4,9b-hexahydro-[1]-benzopyrano[3,4-c]pyrrol-2-yl)butyl]-8-isopropoxy-pyrido[2',3':4,5]thieno[3,2-d]pyrimidine-2,4(1H,3H)-dione hydrochloride] showed a Kb of 0.182 nM. With `COc1cccc2c1[C@@H]1CN(CCCCn3c(=O)[nH]c4c(sc5cnccc54)c3=O)C[C@@H]1CO2` [Example 29, 3-[4-((3aR,9bR)-cis-9-Methoxy-1,2,3,3a,4,9b-hexahydro-[1]-benzopyrano[3,4-c]pyrrol-2-yl)butyl]-pyrido[4',3':4,5]thieno[3,2-d]pyrimidine-2,4(1H,3H)-dione hydrochloride] the Kb was 0.501 nM. For `COc1cccc2c1[C@@H]1CN(CCCCn3c(=O)[nH]c4c(sc5nc(-c6ccccc6)cnc54)c3=O)C[C@@H]1CO2` [Example 40, 3-[4-((3aR,9bR)-cis-9-Methoxy-1,2,3,3a,4,9b-hexahydro-[1]-benzopyrano[3,4-c]pyrrol-2-yl)butyl]-7-phenyl-pyrazino[2',3':4,5]thieno[3,2-d]pyrimidine-2,4(1H,3H)-dione hydrochloride], the Kb was 4.47 nM.
